Measured values from patent US9868742B2, “Substituted imidazo[1,2-b]pyridazines, substituted imidazo[1,5-b] pyridazines, related compounds, and their use in the treatment of medical disorders” (Lysosomal Therapeutics Inc., priority 2016, dated 2018).
≈ marks a conversion by molar mass, not a printed value.

Molecular target: T1, glucocerebrosidase (Gcase) (Homo sapiens, UniProt P04062)
T1 sequence (P04062 40-536): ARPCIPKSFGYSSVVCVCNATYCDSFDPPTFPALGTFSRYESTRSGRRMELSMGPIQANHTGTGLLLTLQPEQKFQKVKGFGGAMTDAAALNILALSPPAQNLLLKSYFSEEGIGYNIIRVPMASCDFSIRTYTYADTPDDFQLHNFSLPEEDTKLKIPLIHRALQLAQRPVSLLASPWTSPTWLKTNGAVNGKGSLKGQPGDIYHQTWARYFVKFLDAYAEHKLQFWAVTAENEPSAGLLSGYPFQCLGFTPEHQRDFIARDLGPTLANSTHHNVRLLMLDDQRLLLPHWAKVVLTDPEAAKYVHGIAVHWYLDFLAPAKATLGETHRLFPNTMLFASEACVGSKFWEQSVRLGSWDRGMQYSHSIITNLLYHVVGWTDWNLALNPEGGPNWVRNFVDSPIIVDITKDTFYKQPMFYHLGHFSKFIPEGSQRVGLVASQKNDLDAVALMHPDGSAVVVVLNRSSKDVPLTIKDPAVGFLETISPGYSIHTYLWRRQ
Experiment: Glucocerebrosidase (Gcase) activation assay, 4-methylumbelliferyl-beta-D-glucopyranoside substrate with saposin C
Format: biochemical
Conditions: 0.1 μM test compound; 10 nM GCase, 100 nM saposin C, pH 4.7; read-out: Percent Gease Activation 0.1 μM Test Compound
Description: The ability of exemplary compounds to activate glucocerebrosidase (Gcase) was measured.
A 484 μL aliquot of a 1.0 mg/mL solution of phosphatidylserine (PS) (Sigma P7769) in chloroform was evaporated under a stream of nitrogen for 1 hour. The lipid film was dissolved over 4 minutes of vigorous vortexing in 40 mL of 176 mM K2HPO4/50 mM citric acid (pH 4.7) containing 7.5 μL of triton X-100, resulting in a mixed micellar preparation with a composition of 0.32 mM triton and 0.37 mol % PS. 4-Methylumbelliferyl-beta-D-glucopyranoside (ACROS-337025000) was dissolved in the micellar solution to a final concentration of 2 mM for use as the reaction substrate.
Test compounds were diluted to the desired concentrations with dimethylsulfoxide (DMSO) from 10 mM stocks, and 0.41 μL of the DMSO compound mixture was added to 100 μL of micellar solution containing 10 nM GCase and 100 nM saposin C (Enzo ALX-201-262-C050). Pre-incubation was allowed to occur for 30 minutes at room temperature, after which the reaction was initiated by combining 25 μL of substrate solution with 25 μL of compound/GCase/saposin mixture. The reaction proceeded for 15 minutes at room temperature and was stopped by adding 150 μL of 1M glycine, pH 12.5. The endpoint of the reaction was monitored by measuring fluorescence intensity (excitation: 365 nm; emission: 440 nm) on a SpectraMax i3 instrument (Molecular Devices). […]

For CCCCCOC1CCC(NC(=O)c2ncc3c(C)cc(C)nn23)CC1 (stereo not shown), the activation at 0.1 µM was 5 to 20%.

Same assay, conditions: 1 μM test compound; 10 nM GCase, 100 nM saposin C, pH 4.7; read-out: Percent Gease Activation 1 μM Test Compound

Compound CCCCCOC1CCC(NC(=O)c2ncc3c(C)cc(C)nn23)CC1 (stereo not shown) has an activation at 1 µM greater than 20%.

Tested on: not listed separately
Experiment: Compound solubility in water
Format: physicochemical
Conditions: not given

In order of rising solubility:
1. Cc1cc(-c2cccc(F)c2)nn2c(C(=O)N[C@H](C3CC3)C(F)(F)F)ncc12 [(R)—N-(1-Cyclopropyl-2,2,2-trifluoroethyl)-2-(3-fluorophenyl)-4-methylimidazo[1,5-b]pyridazine-7-carboxamide]  0.2 µg/mL (≈ 0.51 µM)
2. Cc1cc(-c2cccc(F)c2)nn2c(C(=O)N[C@@H](C3CC3)C(F)(F)F)ncc12 [(S)—N-(1-Cyclopropyl-2,2,2-trifluoroethyl)-2-(3-fluorophenyl)-4-methylimidazo[1,5-b]pyridazine-7-carboxamide]  0.2 µg/mL (≈ 0.51 µM)
3. Cc1cc(-c2cccc3ncoc23)nn2c(C(=O)NC(C3CC3)C(F)(F)F)cnc12 (stereo not shown)  0.3 µg/mL (≈ 0.722 µM)
4. Cc1cc(-c2cccc(F)c2C#N)nn2c(C(=O)N[C@@H](C)C3CC3)cnc12 [(S)-6-(2-Cyano-3-fluorophenyl)-N-(1-cyclopropylethyl)-8-methylimidazo[1,2-b]pyridazine-3-carboxamide]  0.5 µg/mL (≈ 1.38 µM)
5. Cc1cc(-c2ccc(F)cc2C#N)nn2c(C(=O)NC(C3CC3)C(F)(F)F)cnc12 (stereo not shown)  0.7 µg/mL (≈ 1.68 µM)
6. C#CC(NC(=O)c1ncc2c(C)cc(-c3cccc(F)c3)nn12)C(F)(F)F (stereo not shown) [2-(3-Fluorophenyl)-4-methyl-N-(1,1,1-trifluorobut-3-yn-2-yl)imidazo[1,5-b]pyridazine-7-carboxamide]  0.7 µg/mL (≈ 1.86 µM)
7. Cc1cc(-c2cncc(Cl)c2)nn2c(C(=O)N[C@@H](C3CC3)C(F)(F)F)ncc12 [(S)-2-(5-Chloropyridin-3-yl)-N-(1-cyclopropyl-2,2,2-trifluoroethyl)-4-methylimidazo[1,5-b]pyridazine-7-carboxamide]  0.7 µg/mL (≈ 1.71 µM)
8. Cc1cc(-c2ccc3ncn(C)c3c2)nn2c(C(=O)N[C@H](C3CC3)C(F)(F)F)cnc12 [(R)—N-(1-Cyclopropyl-2,2,2-trifluoroethyl)-8-methyl-6-(1-methyl-1H-benzo[d]imidazol-6-yl)imidazo[1,2-b]pyridazine-3-carboxamide]  1 µg/mL (≈ 2.33 µM)
9. Cc1cc(-c2cccc(F)c2C#N)nn2c(C(=O)N[C@@H](C)C(F)(F)F)cnc12 [(S)-6-(2-Cyano-3-fluorophenyl)-8-methyl-N-(1,1,1-trifluoropropan-2-yl)imidazo[1,2-b]pyridazine-3-carboxamide]  1.1 µg/mL (≈ 2.81 µM)
10. Cc1cc(-c2ccc3ocnc3c2)nn2c(C(=O)NC(C)C(F)(F)F)cnc12 (stereo not shown)  1.3 µg/mL (≈ 3.34 µM)
11. Cc1cc2ncc(C(=O)Nc3ccc4c(c3)CCC4)n2nc1Cl  1.5 µg/mL (≈ 4.59 µM)
12. Cc1cc(-c2cccc(F)c2)nn2c(C(=O)NC(C)C(F)(F)F)cnc12 (stereo not shown)  1.9 µg/mL (≈ 5.19 µM)
13. Cc1cc(-c2ccc(F)cc2C#N)nn2c(C(=O)NC(C)C(F)(F)F)cnc12 (stereo not shown)  3.9 µg/mL (≈ 9.97 µM)
14. Cc1cc(-c2cccc3ncoc23)nn2c(C(=O)NC(C)C(F)(F)F)cnc12 (stereo not shown)  4.4 µg/mL (≈ 11.3 µM)
